Values quoted from earlier work in patent US7419995B2, “N-substituted benzimidazoyl c-Kit inhibitors and combinatorial benzimidazole library” (OSI Pharmaceuticals, Inc., priority 2004, dated 2008).
Structures can show the parent of a compound that is named as a salt.

Test system: MO7e human leukemia cells

SMILES: Cc1ccc(NC(=O)c2ccc(CN3CCN(C)CC3)cc2)cc1Nc1nccc(-c2cccnc2)n1 [Gleevec, imatinib mesylate]
- GM-CSF stimulated growth of MO7e cells (GM-CSF stimulated): not affected
- Kit ligand-stimulated growth of MO7e cells (Kit ligand-stimulated): inhibited
- apoptosis of MO7e cells (Kit ligand-stimulated conditions): induces apoptosis
